Assay results published in ChEMBL document CHEMBL1130628, “Synthesis and antiproliferative activity of a cyclic analog of dolastatin 10” (Bioorg Med Chem Lett, 1998).

Tests used:
[1] = test system: HT-29; test: Compound was evaluated for antiproliferative activity against human colon adenocarcinoma (HT-29) cell lines.; assay type: functional, cell-based
[2] = test system: L1210; test: Compound was evaluated for antiproliferative activity against murine leukemia (L1210) cell lines; assay type: functional, cell-based; conditions: Mus musculus
[3] = target: T1, Tubulin alpha chain (Sus scrofa, UniProt P02550); test: Compound was tested in vitro for inhibition of tubulin polymerization; assay type: functional
T1 sequence (P02550 whole entry, looked up): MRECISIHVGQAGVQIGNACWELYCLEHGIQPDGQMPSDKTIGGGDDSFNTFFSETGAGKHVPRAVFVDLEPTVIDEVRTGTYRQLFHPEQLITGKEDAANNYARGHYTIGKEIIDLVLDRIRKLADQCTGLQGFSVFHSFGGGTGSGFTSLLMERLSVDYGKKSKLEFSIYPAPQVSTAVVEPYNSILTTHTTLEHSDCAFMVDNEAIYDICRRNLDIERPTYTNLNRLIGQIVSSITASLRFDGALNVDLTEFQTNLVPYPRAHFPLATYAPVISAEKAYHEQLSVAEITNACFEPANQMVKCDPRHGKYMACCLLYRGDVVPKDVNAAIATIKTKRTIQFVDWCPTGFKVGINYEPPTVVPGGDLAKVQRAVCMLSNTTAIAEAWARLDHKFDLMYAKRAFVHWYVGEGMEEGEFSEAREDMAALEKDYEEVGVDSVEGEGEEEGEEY

[4] = test system: L1210; test: Compound was evaluated for antiproliferative activity against murine leukemia (L1210) cell lines.; assay type: functional, cell-based; conditions: Mus musculus
[5] = target: T1, Tubulin alpha chain; test: Compound was tested in vitro for inhibition of tubulin polymerization.; assay type: functional

SMILES | IC50 [1] [nM] | IC50 [2] [nM] | IC50 [3] [nM] | IC50 [4] [nM] | IC50 [5] [nM]
CC[C@H](C)[C@H]1[C@H](OC)CC(=O)N2CCC[C@H]2[C@H](OC)[C@H](C)C(=O)N[C@@H](Cc2ccccc2)c2nc(cs2)C(=O)O[C@H](C)[C@H](N(C)C)C(=O)N[C@@H](C(C)C)C(=O)N1C | 58.5 | 111 | 39000 | – | –
CC[C@H](C)[C@@H]([C@@H](CC(=O)N1CCC[C@H]1[C@H](OC)C(C)C(=O)NC(Cc1ccccc1)c1nccs1)OC)N(C)C(=O)[C@@H](NC(=O)[C@H](C(C)C)N(C)C)C(C)C (single isomer, unassigned) [DOLASTATIN-10] | 0.06 | – | – | 0.03 | 2200
